Each compound was assayed on production of amyloid beta protein Aβ(1-42) in human WT-APP overexpressing CHO cells. Conditions: Homo sapiens, CHO, read-out: Aβ 42 IC50.
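Further: Aβ(1-42) released into conditioned medium captured by ELISA after roughly 24 h compound exposure, vehicle and inhibitor controls defining maximal and minimal inhibition.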

In the case of `COc1cc(C(=O)NCCc2ccccc2Cl)ccc1-n1cnc(C)c1` [Example 79, N-[2-(2-chlorophenyl)ethyl]-3-methoxy-4-(4-methyl-1H-imidazol-1-yl)benzamide], the IC50 is reported as 495 nM.

Same assay, conditions: Homo sapiens, CHO, read-out: Aβ 42 IC50, Geometric mean of 2-8 determinations; human WT-APP overexpressing CHO cells

`COc1cc(C(=O)N[C@H]2CCc3ccc(Cl)cc32)ccc1-n1cnc(C)c1` [Example 129, N-[(1S)-6-chloro-2,3-dihydro-1H-inden-1-yl]-3-methoxy-4-(4-methyl-1H-imidazol-1-yl)benzamide] and `COc1cc(C(=O)N[C@@H]2CCC[C@@H]2c2ccc(F)cc2)ccc1-n1cnc(C)c1` [Example 115, N-[(1R,2R)-2-(4-fluorophenyl)cyclopentyl]-3-methoxy-4-(4-methyl-1H-imidazol-1-yl)benzamide] are within 1.5-fold of each other in IC50: 605 nM for the first, 798 nM for the second.

Compared with `COc1cc(C(=O)NCC2COc3ccccc3C2)ccc1-n1cnc(C)c1` (stereo not shown) [Example 122, N-(3,4-dihydro-2H-chromen-3-ylmethyl)-3-methoxy-4-(4-methyl-1H-imidazol-1-yl)benzamide], `COc1cc(C(=O)N2CC(COc3ccccc3C(F)(F)F)C2)ccc1-n1cnc(C)c1` [Example 131, 1-{2-methoxy-4-[(3-{[2-(trifluoro-methyl)phenoxy]methyl}azetidin-1-yl)carbonyl]phenyl}-4-methyl-1H-imidazole] is 3.1-fold lower in IC50: 976 nM for the first, 311 nM for the second. The second is the more potent here.

Compound `COc1cc(C(=O)N2CCCC2COc2ccccc2C(F)(F)F)ccc1-n1cnc(C)c1` (stereo not shown) [Example 134, 1-{2-methoxy-4-[(2-{[2-(tri-fluoromethyl)phenoxy]methyl}pyrrolidin-1-yl)carbonyl]phenyl}-4-methyl-1H-imidazole] has an IC50 of 675 nM.

Same assay, conditions: Homo sapiens, CHO, read-out: GM Aβ 42B IC50, Geometric Mean of 2-8 Determinations; human WT-APP overexpressing CHO cells

`C#CCOc1cc(C(=O)NCCc2cccc(Cl)c2)ccc1-n1cnc(C)c1` [Example 3, N-[2-(3-chlorophenyl)ethyl]-4-(4-methyl-1H-imidazol-1-yl)-3-(prop-2-yn-1-yloxy)benzamide] and `COc1cc(C(=O)NCc2cc(-c3cccc(Cl)c3)no2)ccc1-n1cnc(C)c1` [Example 4, N-{[3-(3-chlorophenyl)isoxazol-5-yl]methyl}-3-methoxy-4-(4-methyl-1H-imidazol-1-yl)benzamide] are within 1.5-fold of each other in IC50: 341 nM for the first, 330 nM for the second.

Same assay, conditions: read-out: Aβ 42 IC50; Geometric mean of 2-8 determinations; human WT-APP overexpressing CHO cells

Going from `COc1cc(C(=O)NC2CCc3ccccc3C2)ccc1-n1cnc(C)c1` (stereo not shown) [Example 114, 3-methoxy-4-(4-methyl-1H-imidazol-1-yl)-N-(1,2,3,4-tetrahydro-naphthalen-2-yl) benzamide] to `COc1cc(C(=O)NCc2ccccc2OC(F)(F)F)ccc1-n1cnc(C)c1` [Example 75, 3-methoxy-4-(4-methyl-1H-imidazol-1-yl)-N-[2-(trifluoromethoxy)benzyl] benzamide], the IC50 falls from 793 nM to 469 nM (1.7-fold).

First: COc1cc(C(=O)N(C)Cc2cccc(C(F)(F)F)c2)ccc1-n1cnc(C)c1 [Example 20, 3-methoxy-N-methyl-4-(4-methyl-1H-imidazol-1-yl)-N-[3-(trifluoro-methyl)benzyl] benzamide]
Second: COc1cc(C(=O)NCc2cccc(C(F)(F)F)c2)ccc1-n1cnc(C)c1 [Example 14, 3-methoxy-4-(4-methyl-1H-imidazol-1-yl)-N-[3-(trifluoro-methyl)benzyl] benzamide]
The IC50 of the first is 2.2-fold higher: 997 nM for the first, 447 nM for the second. The second is the more potent here.

Going from `COc1cc(C(=O)NC(C)(C)c2cccc(C(F)(F)F)c2)ccc1-n1cnc(C)c1` [Example 32, 3-methoxy-4-(4-methyl-1H-imidazol-1-yl)-N-{1-methyl-1-[3-(trifluoro-methyl)phenyl]ethyl} benzamide] to `COc1cc(C(=O)NCc2ccc(Cl)cc2C)ccc1-n1cnc(C)c1` [Example 59, N-(4-chloro-2-methylbenzyl)-3-methoxy-4-(4-methyl-1H-imidazol-1-yl) benzamide], the IC50 falls from 619 nM to 351 nM (1.8-fold). The second is the more potent here.

First: COc1cc(C(=O)NCC2CCCC2)ccc1-n1cnc(C)c1 [Example 47, N-cyclopentyl-methyl-3-methoxy-4-(4-methyl-imidazol-1-yl)-benzamide]
Second: COc1cc(C(=O)NCCc2c[nH]c3ccc(Br)cc23)ccc1-n1cnc(C)c1 [Example 52, N-[2-(5-bromo-1H-indol-3-yl)ethyl]-3-methoxy-4-(4-methyl-1H-imidazol-1-yl) benzamide]
The IC50 of the first is 4.8-fold higher: 1200 nM for the first, 251 nM for the second. The second is the more potent here.
